The values below come from patent US20050107473A1, “Process for producing tert-leucine” (AJINOMOTO CO. INC, priority 2002, published 2005).

The data set in a line: solubility of L-tert-leucine in aqueous solutions. The data set is classed as physicochemical. Conditions: 10° C.

With `CC(C)(C)[C@H](N)C(=O)O` [L-tert-leucine], under “1N aqueous hydrochloric acid solution”, the “solubility in 1N aqueous hydrochloric acid solution” value worked out at 20.4 wt %. Moreover, the solubility in water (water) came to 12.7 wt %.
